Assay results reported in article PMC10732257 (Oncotarget, 2023).

What was measured:
[1] = target: H2 (histamine) (Homo sapiens, UniProt P25021); experiment: GPCR agonist action testing; type: cell-based
Excerpt: (§1) Supplementary Table 2: Results of GPCR agonist action testing of GFH009 administered at a
(§2) Agonist action against GPCR type shown below
(§3) Target % Agonist Effect @ Max Dose
(§4) M1 (muscarinic Ach) −2.18
(§5) M2 (muscarinic Ach) −0.63

[2] = target: T1, b1 (adrenoceptor) (Homo sapiens, UniProt P08588); experiment: GPCR agonist action testing; type: cell-based
T1 construct: Wuxi AppTech (contract laboratory)
T1 sequence (P08588 whole entry): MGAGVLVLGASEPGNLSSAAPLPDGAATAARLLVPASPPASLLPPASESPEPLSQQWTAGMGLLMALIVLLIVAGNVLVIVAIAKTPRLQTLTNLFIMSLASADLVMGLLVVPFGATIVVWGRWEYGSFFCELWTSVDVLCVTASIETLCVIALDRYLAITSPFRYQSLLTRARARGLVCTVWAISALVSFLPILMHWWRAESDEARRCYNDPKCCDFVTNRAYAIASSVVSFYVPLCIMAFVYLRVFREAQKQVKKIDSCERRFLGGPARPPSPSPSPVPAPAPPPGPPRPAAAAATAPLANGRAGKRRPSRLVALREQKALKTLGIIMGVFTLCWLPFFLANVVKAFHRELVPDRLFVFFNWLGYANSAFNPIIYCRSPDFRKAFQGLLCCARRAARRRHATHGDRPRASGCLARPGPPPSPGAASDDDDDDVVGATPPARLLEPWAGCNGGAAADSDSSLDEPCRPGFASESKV
Excerpt: as §1, §2, §3, §4, §5

[3] = target: T2, 5-HT2B (serotonin) (Homo sapiens, UniProt P41595); experiment: GPCR agonist action testing; type: cell-based
T2 construct: Wuxi AppTech (Shanghai, China)
T2 sequence (P41595 whole entry, species assumed): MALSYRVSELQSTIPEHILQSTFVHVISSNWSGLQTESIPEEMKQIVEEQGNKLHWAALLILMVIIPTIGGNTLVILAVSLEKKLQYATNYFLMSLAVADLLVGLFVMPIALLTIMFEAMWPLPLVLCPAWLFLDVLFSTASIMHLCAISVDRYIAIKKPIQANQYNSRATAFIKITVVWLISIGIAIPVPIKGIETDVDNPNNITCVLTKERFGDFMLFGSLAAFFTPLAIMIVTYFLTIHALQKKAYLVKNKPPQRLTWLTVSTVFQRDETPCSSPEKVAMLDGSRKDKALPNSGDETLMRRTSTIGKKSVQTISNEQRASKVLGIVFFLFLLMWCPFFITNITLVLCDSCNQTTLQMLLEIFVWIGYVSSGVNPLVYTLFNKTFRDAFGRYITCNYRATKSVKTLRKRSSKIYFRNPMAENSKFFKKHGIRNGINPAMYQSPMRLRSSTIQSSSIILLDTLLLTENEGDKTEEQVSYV
Excerpt: as §1, §2, §3, §4, §5

[4] = target: T3, CB1 (cannabinoid) (Homo sapiens, UniProt P21554); experiment: GPCR agonist action testing; type: cell-based
T3 construct: Wuxi AppTech (contract laboratory)
Excerpt: as §1, §2, §3, §4, §5

[5] = system: AD2 (adenosine); experiment: GPCR agonist action testing; type: cell-based
Excerpt: as §1, §2, §3, §4, §5

[6] = target: T4, M1 (muscarinic Ach) (Homo sapiens, UniProt P11229); experiment: GPCR agonist action testing; type: cell-based
T4 sequence (P11229 whole entry): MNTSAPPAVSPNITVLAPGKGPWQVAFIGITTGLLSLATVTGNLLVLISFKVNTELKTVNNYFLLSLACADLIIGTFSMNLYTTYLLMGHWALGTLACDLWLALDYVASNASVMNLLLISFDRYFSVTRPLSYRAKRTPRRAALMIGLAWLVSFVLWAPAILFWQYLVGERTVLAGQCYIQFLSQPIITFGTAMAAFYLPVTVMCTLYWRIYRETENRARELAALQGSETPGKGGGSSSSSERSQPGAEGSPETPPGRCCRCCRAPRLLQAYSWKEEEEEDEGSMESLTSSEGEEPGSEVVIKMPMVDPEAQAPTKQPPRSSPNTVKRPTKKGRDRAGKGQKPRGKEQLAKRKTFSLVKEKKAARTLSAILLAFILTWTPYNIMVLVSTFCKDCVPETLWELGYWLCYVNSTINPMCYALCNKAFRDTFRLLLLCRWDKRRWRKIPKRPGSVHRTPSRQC
Excerpt: as §1, §2, §3, §4, §5

[7] = target: T5, 5-HT1A (serotonin) (Homo sapiens, UniProt P08908); experiment: GPCR agonist action testing; type: cell-based
T5 construct: Wuxi AppTech (Shanghai, China)
T5 sequence (P08908 whole entry, species assumed): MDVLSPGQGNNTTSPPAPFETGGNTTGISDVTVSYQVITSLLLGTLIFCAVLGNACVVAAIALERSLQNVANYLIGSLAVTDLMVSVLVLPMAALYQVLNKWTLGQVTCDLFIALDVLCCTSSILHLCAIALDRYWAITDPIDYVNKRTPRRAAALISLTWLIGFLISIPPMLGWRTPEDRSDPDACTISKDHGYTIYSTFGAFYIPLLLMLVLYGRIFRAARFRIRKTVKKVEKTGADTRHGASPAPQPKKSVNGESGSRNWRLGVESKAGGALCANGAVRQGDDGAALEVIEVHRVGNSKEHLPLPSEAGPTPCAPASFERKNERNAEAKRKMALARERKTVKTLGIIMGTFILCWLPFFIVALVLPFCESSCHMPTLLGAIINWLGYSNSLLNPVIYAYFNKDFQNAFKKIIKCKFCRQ
Excerpt: as §1, §2, §3, §4, §5

[8] = target: T6, H1 (histamine) (Homo sapiens, UniProt P35367); experiment: GPCR agonist action testing; type: cell-based
T6 construct: Wuxi AppTech (contract laboratory)
T6 sequence (P35367 whole entry): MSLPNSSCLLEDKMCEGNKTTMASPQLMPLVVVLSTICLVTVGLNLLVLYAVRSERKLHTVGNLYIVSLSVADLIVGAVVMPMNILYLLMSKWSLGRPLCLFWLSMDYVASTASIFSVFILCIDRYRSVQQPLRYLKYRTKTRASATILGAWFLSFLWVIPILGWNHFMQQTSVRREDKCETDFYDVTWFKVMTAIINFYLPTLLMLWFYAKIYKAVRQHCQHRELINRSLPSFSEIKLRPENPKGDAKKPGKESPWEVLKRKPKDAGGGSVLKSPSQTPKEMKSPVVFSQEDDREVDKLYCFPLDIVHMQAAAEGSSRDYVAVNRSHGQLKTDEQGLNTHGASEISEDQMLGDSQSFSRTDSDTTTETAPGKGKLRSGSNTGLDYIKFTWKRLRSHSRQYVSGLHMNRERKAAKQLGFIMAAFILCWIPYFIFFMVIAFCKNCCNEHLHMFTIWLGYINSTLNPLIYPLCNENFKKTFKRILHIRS
Excerpt: as §1, §2, §3, §4, §5

[9] = target: T7, CB2 (cannabinoid) (Homo sapiens, UniProt P34972); experiment: GPCR agonist action testing; type: cell-based
T7 construct: Wuxi AppTech (contract laboratory)
T7 sequence (P34972 whole entry, species assumed): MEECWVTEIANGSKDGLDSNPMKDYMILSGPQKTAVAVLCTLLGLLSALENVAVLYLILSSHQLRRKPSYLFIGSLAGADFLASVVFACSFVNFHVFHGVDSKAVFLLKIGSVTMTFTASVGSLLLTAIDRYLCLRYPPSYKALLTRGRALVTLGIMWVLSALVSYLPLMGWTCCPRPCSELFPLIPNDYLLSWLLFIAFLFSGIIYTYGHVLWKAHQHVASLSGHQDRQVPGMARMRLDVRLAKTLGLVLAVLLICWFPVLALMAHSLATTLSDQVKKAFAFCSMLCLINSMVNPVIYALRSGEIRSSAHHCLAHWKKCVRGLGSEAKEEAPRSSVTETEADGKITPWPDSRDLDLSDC
Excerpt: as §1, §2, §3, §4, §5

[10] = target: T8, D1 (dopamine) (Homo sapiens, UniProt P21728); experiment: GPCR agonist action testing; type: cell-based
T8 construct: Wuxi AppTech (contract laboratory)
T8 sequence (P21728 whole entry): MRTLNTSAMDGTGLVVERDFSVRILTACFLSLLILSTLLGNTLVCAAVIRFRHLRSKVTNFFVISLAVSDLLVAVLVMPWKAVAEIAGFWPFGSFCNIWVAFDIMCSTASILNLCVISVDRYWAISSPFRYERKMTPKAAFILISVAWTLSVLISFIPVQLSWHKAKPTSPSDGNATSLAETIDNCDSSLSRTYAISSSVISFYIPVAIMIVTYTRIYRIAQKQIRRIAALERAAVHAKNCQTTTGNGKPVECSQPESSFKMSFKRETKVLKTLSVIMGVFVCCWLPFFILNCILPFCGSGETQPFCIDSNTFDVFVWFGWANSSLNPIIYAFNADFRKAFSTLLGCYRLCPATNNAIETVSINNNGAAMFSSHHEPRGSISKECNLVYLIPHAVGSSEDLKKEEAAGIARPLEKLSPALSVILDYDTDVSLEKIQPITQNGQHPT
Excerpt: as §1, §2, §3, §4, §5

[11] = target: V1A (vasopressin) (Homo sapiens, UniProt P37288); experiment: GPCR agonist action testing; type: cell-based
Sequence of V1A (vasopressin) (P37288 whole entry): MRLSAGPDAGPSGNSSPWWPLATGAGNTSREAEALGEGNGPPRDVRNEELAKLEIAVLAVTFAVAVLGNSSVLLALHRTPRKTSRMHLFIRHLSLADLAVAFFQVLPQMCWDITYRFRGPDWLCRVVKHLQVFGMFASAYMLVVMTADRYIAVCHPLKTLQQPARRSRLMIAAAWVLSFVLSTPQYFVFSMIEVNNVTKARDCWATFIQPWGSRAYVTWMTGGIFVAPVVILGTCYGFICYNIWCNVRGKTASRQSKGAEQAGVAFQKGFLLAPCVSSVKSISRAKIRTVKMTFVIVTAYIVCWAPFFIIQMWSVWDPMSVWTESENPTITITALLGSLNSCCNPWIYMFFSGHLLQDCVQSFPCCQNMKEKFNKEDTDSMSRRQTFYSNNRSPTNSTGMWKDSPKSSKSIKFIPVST
Excerpt: as §1, §2, §3, §4, §5

[12] = target: T9, a1a (adrenoceptor) (Homo sapiens, UniProt P35348); experiment: GPCR agonist action testing; type: cell-based
T9 construct: Wuxi AppTech (contract laboratory)
Excerpt: as §1, §2, §3, §4, §5

[13] = target: op-m (opioid) (Homo sapiens, UniProt P35372); experiment: GPCR agonist action testing; type: cell-based
Excerpt: as §1, §2, §3, §4, §5

[14] = target: T10, M3 (muscarinic Ach) (Homo sapiens, UniProt P20309); experiment: GPCR agonist action testing; type: cell-based
T10 sequence (P20309 whole entry): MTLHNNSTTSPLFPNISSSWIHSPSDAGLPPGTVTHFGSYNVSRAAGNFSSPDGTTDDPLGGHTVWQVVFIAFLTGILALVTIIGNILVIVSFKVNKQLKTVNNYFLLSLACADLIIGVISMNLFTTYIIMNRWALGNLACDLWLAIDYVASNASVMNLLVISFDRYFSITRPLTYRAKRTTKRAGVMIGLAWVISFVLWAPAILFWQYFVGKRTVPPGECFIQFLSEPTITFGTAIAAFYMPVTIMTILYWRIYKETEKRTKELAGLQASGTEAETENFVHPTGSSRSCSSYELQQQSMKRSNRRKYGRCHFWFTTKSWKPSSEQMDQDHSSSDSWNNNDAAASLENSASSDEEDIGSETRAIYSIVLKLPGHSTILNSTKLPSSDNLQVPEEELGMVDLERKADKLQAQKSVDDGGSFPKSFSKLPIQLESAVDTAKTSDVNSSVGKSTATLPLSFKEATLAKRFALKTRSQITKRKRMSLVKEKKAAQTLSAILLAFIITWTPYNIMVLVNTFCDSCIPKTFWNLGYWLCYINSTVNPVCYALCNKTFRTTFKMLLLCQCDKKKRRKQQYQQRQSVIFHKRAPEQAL
Excerpt: as §1, §2, §3, §4, §5

[15] = system: MV-4-11 xenograft; experiment: Anti-tumor efficacy in subcutaneous MV-4-11 xenograft model; type: in vivo, female BALB/c nude mice
Method: Figure 6 Anti-tumor efficacy of GFH009 in MV-4-11 xenograft model. MV-4-11 xenograft in female BALB/c nude mice were treated with GFH009 or enitociclib at the indicated doses (n = 8 mice per group). Results are expressed as mean ± SEM. ^* P < 0.05, ^**** P < 0.0001, two-way ANOVA with Dunnett’s multiple comparisons test analysis compared to Vehicle control group.
In vivo studies of tumor suppression were conducted in female BALB/c nude mice (Beijing Vital River Laboratory Animal Technology Co, Ltd., Changping, Beijing, China) bearing MV-4-11 xenografts (ATCC, Rockville, MD, USA). Each mouse was inoculated subcutaneously into the right dorsal-region with 5.0 × 10^6 cultured MV-4-11 cells in a total volume of 0.2 ml solution and allowed to develop xenograft tumors. Once tumor size had reached […], mice were divided into groups to receive 1 of 8 different treatment preparations dosed intravenously via the tail vein (Table 2). […] Enitociclib was administered as a 1.0 mg/mL solution in ultrapure water with 5% DMSO. Vehicle control was 50 mM PBS with no dissolved treatment drug.
Animals dosed BIW were given treatments on 2 consecutive days. Weights were recorded for each mouse every day and tumor volumes assessed 3 times a week. Total treatment administration occurred across 3 consecutive weeks.
Subcutaneous tumor volume (TV) was calculated as TV = (L × W^2)/2, where L was the length and W was the width of the tumor [11]. […] TGI was calculated as TGI (%) = (1 – avTi-0/ avCi-0)) × 100, where avTi-0 is the mean TV of the treatment group on a given day minus the mean TV of this treatment group on the day of group assignment, and avCi-0 is the mean TV of the vehicle control group on a given day minus the mean TV of the vehicle control group on the day of group assignment.
Tumor volume data was subjected to a base-10 logarithmic transformation and subsequent comparisons of TV across groups was made using two-way ANOVA (Dunnett’s multiple comparisons test). All plotting and statistical analyses were conducted using GraphPad Prism 6.00 (GraphPad Software).

[16] = target: T11, ETA (endothelin) (Homo sapiens, UniProt P25101); experiment: GPCR competitive antagonist (off-target inhibitory action) testing; type: cell-based
T11 construct: Wuxi AppTech (contract laboratory)
T11 sequence (P25101 21-427): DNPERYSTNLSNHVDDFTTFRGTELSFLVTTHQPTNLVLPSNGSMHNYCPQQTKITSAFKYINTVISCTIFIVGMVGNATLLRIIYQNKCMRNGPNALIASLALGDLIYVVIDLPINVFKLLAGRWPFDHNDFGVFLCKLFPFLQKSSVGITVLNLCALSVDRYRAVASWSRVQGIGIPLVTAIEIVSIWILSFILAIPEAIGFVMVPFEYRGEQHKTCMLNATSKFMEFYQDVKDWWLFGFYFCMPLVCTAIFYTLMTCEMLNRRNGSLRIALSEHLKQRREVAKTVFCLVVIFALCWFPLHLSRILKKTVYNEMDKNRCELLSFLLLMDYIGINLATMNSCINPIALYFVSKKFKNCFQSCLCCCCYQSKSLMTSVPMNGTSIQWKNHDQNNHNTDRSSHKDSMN
Excerpt: (§6) Supplementary Table 3: Results of off-target inhibitory action testing of GFH009 administered at
(§7) Competitive antagonist activity against GPCR type shown below

[17] = target: T12, b2 (adrenoceptor) (Homo sapiens, UniProt P07550); experiment: as above; type: cell-based
T12 construct: Wuxi AppTech (contract laboratory)
T12 sequence (P07550 whole entry): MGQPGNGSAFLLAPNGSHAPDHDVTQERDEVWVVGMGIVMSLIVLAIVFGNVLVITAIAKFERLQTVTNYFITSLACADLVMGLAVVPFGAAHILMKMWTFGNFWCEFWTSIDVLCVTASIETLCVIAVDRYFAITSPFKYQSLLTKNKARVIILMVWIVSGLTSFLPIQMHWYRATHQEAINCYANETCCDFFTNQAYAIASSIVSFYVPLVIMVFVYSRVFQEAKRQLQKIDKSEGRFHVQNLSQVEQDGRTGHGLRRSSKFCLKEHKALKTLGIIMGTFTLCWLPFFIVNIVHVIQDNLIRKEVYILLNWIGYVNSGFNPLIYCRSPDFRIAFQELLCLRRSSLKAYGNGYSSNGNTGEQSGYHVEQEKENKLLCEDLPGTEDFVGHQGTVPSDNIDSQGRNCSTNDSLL
Excerpt: as §6, §7

[18] = target: T13, 5-HT2A (serotonin) (Homo sapiens, UniProt P28223); experiment: as above; type: cell-based
T13 construct: Wuxi AppTech (Shanghai, China)
Excerpt: as §6, §7

[19] = target: T8, D1 (dopamine); experiment: as above; type: cell-based
Excerpt: as §6, §7

[20] = target: CDK9/cyclin T1(h) (Homo sapiens, UniProt P50750); conditions: read-out: IC50 of inhibition of the CDK9/Cyclin T1 complex; radiometric kinase activity
Method: Figure 2 Effect of GFH009 on CDK9 enzymatic activity. IC50 of GFH009 inhibition activity against the CDK9/cyclin T1 complex was determined with Eurofin KinaseProfiler radiometric protein kinase activity.
GFH009 inhibition activity against the CDK9/cyclin T1 complex as well as off-target CDK family reactivity were assayed by Eurofins Pharma Discovery Services UK Ltd., (Dundee, UK). Determination of off-target inhibition of other kinases was conducted by DiscoverX LeadHunter Discovery Services (Freemont, CA, USA.) GFH009 reactivity to GPCR family members was assayed by Wuxi AppTech (Shanghai, China).

[21] = target: T4, M1 (muscarinic Ach); experiment: GPCR competitive antagonist (off-target inhibitory action) testing; type: cell-based
Excerpt: as §6, §7
(§8) Target % Inhibitory Effect @ Max Dose
(§9) M1 (muscarinic Ach) 98.78
(§10) M2 (muscarinic Ach) 95.69
(§11) M3 (muscarinic Ach) 99.12

[22] = target: M2 (muscarinic Ach) (Homo sapiens, UniProt P08172); experiment: as above; type: cell-based
Excerpt: as §6, §7, §8, §9, §10, §11

[23] = target: T10, M3 (muscarinic Ach); experiment: as above; type: cell-based
Excerpt: as §6, §7, §8, §9, §10, §11

SMILES: COC[C@@H](C)NC1CCC(Nc2cc(-c3csc(NCC4(C#N)CCOCC4)n3)c(Cl)cn2)CC1 (stereo partly drawn) [GFH009]
- % Agonist Effect @ Max Dose (12 µM) [1]: −0.03%
- % Agonist Effect @ Max Dose (12 µM) [2]: 4.53%
- % Agonist Effect @ Max Dose (12 µM) [3]: 4.55%
- % Agonist Effect @ Max Dose (12 µM) [4]: −0.7%
- % Agonist Effect @ Max Dose (12 µM) [5]: 21.7%
- % Agonist Effect @ Max Dose (12 µM) [6]: −2.18%
- % Agonist Effect @ Max Dose (12 µM) [7]: −0.33%
- % Agonist Effect @ Max Dose (12 µM) [8]: 1.55%
- % Agonist Effect @ Max Dose (12 µM) [9]: 0.23%
- % Agonist Effect @ Max Dose (12 µM) [10]: −1.49%
- % Agonist Effect @ Max Dose (12 µM) [11]: 0.59%
- % Agonist Effect @ Max Dose (12 µM) [12]: 4.58%
- % Agonist Effect @ Max Dose (12 µM) [13]: 0.71%
- % Agonist Effect @ Max Dose (12 µM) [14]: 0.49%
- Tumor total volume at 10.0 mg/kg ([15]; 10.0 mg/kg i.v., through day 29): consistent reduction in total volume
- Tumor growth (total volume) compared to the vehicle control ([15]; i.v., GFH009 maleate 2.5, 5.0, 10.0 mg/kg QW or BIW, enitociclib 10.0 mg/kg QW, 3 weeks): tumor growth inhibition
- % Inhibitory Effect @ Max Dose (10 µM) [16]: −0.32%
- % Inhibitory Effect @ Max Dose (10 µM) [17]: −3.46%
- % Inhibitory Effect @ Max Dose (10 µM) [18]: −7.10%
- % Inhibitory Effect @ Max Dose (10 µM) [19]: 1.10%
- IC50 [20]: 9 nM
- % Inhibitory Effect @ Max Dose (10 µM) [21]: 98.78%
- % Inhibitory Effect @ Max Dose (10 µM) [22]: 95.69%
- % Inhibitory Effect @ Max Dose (10 µM) [23]: 99.12%
